Test results: PMC11686366 (Nature Communications, 2024)

Key:
[1] = system: thiamine transporters (SLC19A2 and SLC19A3); assay type: cell-based, human
human SLC19A3 = target: T1, human SLC19A3 (Homo sapiens, UniProt Q9BZV2); assay: Microscale thermophoresis; assay type: binding; settings: for Kd: MST
T1 sequence (Q9BZV2 1-496): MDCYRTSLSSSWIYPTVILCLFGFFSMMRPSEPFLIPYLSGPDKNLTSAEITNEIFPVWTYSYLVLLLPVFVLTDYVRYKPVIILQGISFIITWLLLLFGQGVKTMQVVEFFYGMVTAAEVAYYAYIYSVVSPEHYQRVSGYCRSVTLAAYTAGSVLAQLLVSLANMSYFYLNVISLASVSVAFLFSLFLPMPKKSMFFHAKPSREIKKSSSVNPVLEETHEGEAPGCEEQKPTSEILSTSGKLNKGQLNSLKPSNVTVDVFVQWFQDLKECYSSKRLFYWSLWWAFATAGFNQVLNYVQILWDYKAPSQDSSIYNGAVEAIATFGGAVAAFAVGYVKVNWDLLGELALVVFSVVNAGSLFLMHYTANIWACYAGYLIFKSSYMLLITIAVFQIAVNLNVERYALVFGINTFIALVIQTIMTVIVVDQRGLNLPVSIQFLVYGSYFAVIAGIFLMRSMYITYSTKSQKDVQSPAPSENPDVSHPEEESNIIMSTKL

[2] = pyridoxine, bipolar molecule; cited from earlier work
human SLC19A2 = target: T2, human SLC19A2 (Homo sapiens, UniProt O60779); assay: Microscale thermophoresis; assay type: binding; settings: MST
T2 sequence (O60779 1-497): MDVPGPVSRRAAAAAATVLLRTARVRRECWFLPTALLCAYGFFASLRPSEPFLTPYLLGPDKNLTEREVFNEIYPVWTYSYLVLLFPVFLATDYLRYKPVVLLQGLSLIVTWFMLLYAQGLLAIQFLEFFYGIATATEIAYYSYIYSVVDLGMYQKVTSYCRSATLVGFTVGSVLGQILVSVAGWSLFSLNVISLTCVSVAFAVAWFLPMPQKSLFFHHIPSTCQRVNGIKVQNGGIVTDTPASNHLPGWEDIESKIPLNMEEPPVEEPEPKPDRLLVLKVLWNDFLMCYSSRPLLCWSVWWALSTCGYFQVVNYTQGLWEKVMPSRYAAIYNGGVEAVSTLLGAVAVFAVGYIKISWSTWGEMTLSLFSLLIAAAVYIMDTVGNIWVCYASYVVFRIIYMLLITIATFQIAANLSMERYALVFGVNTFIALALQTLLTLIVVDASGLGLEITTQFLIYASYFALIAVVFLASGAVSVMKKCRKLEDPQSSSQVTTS

Row | SMILES | Inhibition of 3H-thiamine uptake (in words) [1] | further results
1 | CCN1CCN(Cc2ccc(Nc3ncc(F)c(-c4cc(F)c5nc(C)n(C(C)C)c5c4)n3)nc2)CC1 [abemaciclib] | inhibitor | 
2 | CCCc1ncc(C[n+]2ccccc2C)c(N)n1 [amprolium] | inhibitory effects | Kd (human SLC19A3; pH 6.0): ~450 nM
3 | Cc1cc(C#N)cc(C)c1Oc1nc(Nc2ccc(C#N)cc2)nc(N)c1Br [etravirine] | inhibitor | 
4 | Cc1cnc(Nc2ccc(OCCN3CCCC3)cc2)nc1Nc1cccc(S(=O)(=O)NC(C)(C)C)c1 [fedratinib] | inhibitory effects | 
5 | CN(C)C(=N)N=C(N)N [metformin] | inhibitory effects | Affinity (in words) (human SLC19A3; Supplementary Fig. 12 / 11b): millimolar affinity
6 | N#CCNC(=O)c1ccc(-c2ccnc(Nc3ccc(N4CCOCC4)cc3)n2)cc1 [momelotinib] | inhibitory effects | 
7 | Cc1ncc(C[n+]2csc(CCO)c2C)c(=O)[nH]1 [oxythiamine] | inhibitory effects | 
8 | Cc1ncc(CO)c(CO)c1O [pyridoxine] |  | pKa (lower value) [2]: 5.6
9 | CCc1nc(N)nc(N)c1-c1ccc(Cl)cc1 [pyrimethamine] | inhibitory effects | 
10 | Cc1ncc(C[n+]2csc(CCO)c2C)c(N)n1 [thiamine] |  | Kd (human SLC19A3; pH 6.0): ~250 nM; Kd (human SLC19A3; pH 7.5): ~154000 nM; Kd (human SLC19A2; pH 6.0): ~1200 nM; Kd (human SLC19A2; pH 7.5): ~78400 nM
11 | COc1cc(Cc2cnc(N)nc2N)cc(OC)c1OC [trimethoprium] | inhibitory effects | 
